Here are results for 5 compounds from patent US10952433B2, “Solutions for enhancing the effectiveness of insecticides and fungicides on living plants and related methods” (priority 2015, dated 2021).

In experiment [1] the test system is staining fungi (macerated fungal blend). Description: Staining fungi coverage in inoculated stem wound of red oak seedlings, greenhouse (Table 6).
Experimental: In performing the tests employing ten red oak seedlings per iteration with the materials being tested applied at approximately 12 milliliters per seeding applied with a low volume hand spray. […] Seven days after application, a sterile razor blade wound of approximately 2 millimeters by 10 millimeters was created on each seedling stem. Immediately after, the wounding 1 ml of macerated fungal blend suspended in distilled water was applied to each stem wound. Twenty-eight days after wounding, the wounds were evaluated for an average percentage of staining fungi present in each seedling stem wound. Opaque black straw covering was applied to each wound. The opaque black straws were applied within about one minute after wounding and inoculation with the fungi. […] The purpose for using such straws is to facilitate the creation of a dark environment on the wound as fungi tend to like dark damp places. This is employed to enhance the effectiveness of the test by accelerating the severity of the fungal growing conditions. Each stem wound was given two ml of distilled water 10, 17, 21 and 28 days after wounding by a low volume trigger spray. All solutions were included a propylene glycol based dye at a concentration of 100:1. The greenhouse conditions were maintained at 65° F. to 85° F. and the humidity range of 30 to 80% relative humidity. The test which employed the combination of thiabendazole, fludioxonil and azoxystrobin was obtained as a formulated pesticide product which was available under the trade designation “Sporgard”.
The final column is a numerical grade which represents the percent of staining fungi coverage in percentage in the stem wound of the red oak seedlings as measured on day 28.
Experiment [2] deals with staining fungi of the ceratocystis variety. The experiment in a line: Staining fungi in stem wound of white oak seedlings after trunk spray (Table 4). The experiment is classed as in vivo, ceratocystis (on white oak seedlings). The procedure: Fourteen days after the stem wounding, wounds were examined for the presence of staining fungi. In creating these for solution were used the buffer and amine oxides were added to the dilute solution of fungicide.
Referring to TABLE 4 wherein a commonly used fungicide, Propiconazole was employed in tests in the amount of 50:200 PPM (parts per million) employed with and without buffered amine oxides systems 3 and 4 with some of the tests employing the 12 carbon length and others, the 1218 carbon mixture. In a preferred embodiment in 1218 on a weight basis, the 12 carbon length will be present in an amount of about 1.3 to 2.0 times the amount of 18 carbon length and in the preferred range about 1.5 to 1.8 times the amount of 18 carbon length. The tests were performed on white oak seedlings which were provided with a stem wound in which was introduced staining fungi which was of the ceratocystis variety.
The method of testing the materials was to spray the trunk of the seedling with the particular solution being tested and 7 days after such application, creating a wound of approximately 2 millimeters by 10 millimeters on each seedling stem. Fourteen days after the wounding, the wounds were examined for the presence of staining fungi.

The mark [3] stands for this setting: fungicide + Amine Oxide 12 (No Buffer) 200:1, PPM: Thiabendazole/Fludioxonil/Azoxystrobin 160, Chlorothalonil 1235, Propiconazole 102, Mancozeb 1097, Vinclozolin 122, Mefenoxam 20.
[4] abbreviates: fungicide + Amine Oxide 1218 (No Buffer) 200:1, PPM: Thiabendazole/Fludioxonil/Azoxystrobin 160, Chlorothalonil 1235, Propiconazole 103, Mancozeb 1097, Vinclozolin 122, Mefenoxam 20.
[5] abbreviates: fungicide + Buffer System 3 200:1, no amine oxide, PPM: Thiabendazole/Fludioxonil/Azoxystrobin 160, Chlorothalonil 1235, Propiconazole 101, Mancozeb 1097, Vinclozolin 122, Mefenoxam 20.
Where [6] appears, read: fungicide + buffered amine oxide, Buffer System 3, amine oxide 12, 200:1, PPM: Thiabendazole/Fludioxonil/Azoxystrobin 160, Chlorothalonil 1235, Propiconazole 105, Mancozeb 1097, Vinclozolin 122, Mefenoxam 20.
Where [7] appears, read: fungicide + buffered amine oxide, Buffer System 3, amine oxide 1218, 200:1, PPM: Thiabendazole/Fludioxonil/Azoxystrobin 160, Chlorothalonil 1235, Propiconazole 107, Mancozeb 1097, Vinclozolin 122, Mefenoxam 20.
Where [8] appears, read: fungicide alone, highest amount, PPM: Thiabendazole/Fludioxonil/Azoxystrobin 640, Chlorothalonil 4940, Propiconazole 400, Mancozeb 4388, Vinclozolin 488, Mefenoxam 80.
Where [9] appears, read: fungicide alone, increased amount, PPM: Thiabendazole/Fludioxonil/Azoxystrobin 320, Chlorothalonil 2470, Propiconazole 200, Mancozeb 2194, Vinclozolin 244, Mefenoxam 40.
The mark [10] stands for this setting: fungicide alone, PPM: Thiabendazole/Fludioxonil/Azoxystrobin 160, Chlorothalonil 1235, Propiconazole 100, Mancozeb 1097, Vinclozolin 122, Mefenoxam 20.

Turning to `N#Cc1c(Cl)c(Cl)c(Cl)c(C#N)c1Cl` [Chlorothalonil], the “Percent of Staining Fungi Coverage Average (%) in Stem Wound of Red Oak Seedlings (Day 28)” value in experiment [1] (setting [3]) came to 64%; in experiment [1] (setting [4]), 55%; in experiment [1] (setting [5]), 72%; in experiment [1] (setting [6]), 27%; in experiment [1] (setting [7]) it was 33%; in experiment [1] (setting [8]), 37%. The “Percent of Staining Fungi Coverage Average (%) in Stem Wound of Red Oak Seedlings (Day 28)” value in experiment [1] (setting [9]) turned out to be 49%; in experiment [1] (setting [10]), 91%.
Take `COCC(=O)N(c1c(C)cccc1C)[C@H](C)C(=O)OC` [Mefenoxam]: the “Percent of Staining Fungi Coverage Average (%) in Stem Wound of Red Oak Seedlings (Day 28)” value in experiment [1] (setting [3]) is 38%; in experiment [1] (setting [4]) it was 25%; in experiment [1] (setting [5]), 52%; in experiment [1] (setting [6]), 16%; in experiment [1] (setting [7]) it was 21%; in experiment [1] (setting [8]), 23%. For the same compound, the “Percent of Staining Fungi Coverage Average (%) in Stem Wound of Red Oak Seedlings (Day 28)” value worked out at 42% in experiment [1] (setting [9]) and 64% in experiment [1] (setting [10]).
`CCCC1COC(Cn2cncn2)(c2ccc(Cl)cc2Cl)O1` (stereo not drawn) [Propiconazole]: the “Percent of Seedlings with Staining Fungi in Stem Wound of White Oak” value in experiment [2] (Propiconazole 50 PPM + buffered amine oxide system 3, amine oxide 12, 200:1) is reported as 0%; in experiment [2] (Propiconazole 50 PPM + buffered amine oxide system 3, amine oxide 12, 400:1), 20%; in experiment [2] (Propiconazole 50 PPM + buffered amine oxide system 3, amine oxide 1218, 200:1), 0%; in experiment [2] (Propiconazole 50 PPM + buffered amine oxide system 3, amine oxide 1218, 400:1) it was 0%; in experiment [2] (Propiconazole 50 PPM + buffered amine oxide system 4, amine oxide 12, 200:1), 0%; in experiment [2] (Propiconazole 50 PPM + buffered amine oxide system 4, amine oxide 12, 400:1), 20%. Besides, the “Percent of Seedlings with Staining Fungi in Stem Wound of White Oak” value in experiment [2] (Propiconazole 50 PPM + buffered amine oxide system 4, amine oxide 1218, 200:1) was 0%; in experiment [2] (Propiconazole 50 PPM + buffered amine oxide system 4, amine oxide 1218, 400:1) it was 0%; in experiment [2] (Propiconazole 50 PPM alone, 14 days after wounding), 100%; in experiment [2] (Propiconazole 100 PPM alone, 14 days after wounding), 80%; in experiment [2] (Propiconazole 200 PPM alone, 14 days after wounding), 20%. For the same compound, the “Percent of Staining Fungi Coverage Average (%) in Stem Wound of Red Oak Seedlings (Day 28)” value in experiment [1] (setting [3]) came to 43%; in experiment [1] (setting [4]) it was 55%; in experiment [1] (setting [5]) it was 74%; in experiment [1] (setting [6]), 20%; in experiment [1] (setting [7]), 44%; in experiment [1] (setting [8]), 33%. In addition, the “Percent of Staining Fungi Coverage Average (%) in Stem Wound of Red Oak Seedlings (Day 28)” value in experiment [1] (setting [9]) is recorded as 81%; in experiment [1] (setting [10]), 85%.
Turning to `C=CC1(C)OC(=O)N(c2cc(Cl)cc(Cl)c2)C1=O` (stereo not drawn) [Vinclozolin], the “Percent of Staining Fungi Coverage Average (%) in Stem Wound of Red Oak Seedlings (Day 28)” value in experiment [1] (setting [3]) is recorded as 32%; in experiment [1] (setting [4]), 16%; in experiment [1] (setting [5]) it was 49%; in experiment [1] (setting [6]) it was 17%; in experiment [1] (setting [7]) it was 38%; in experiment [1] (setting [8]), 15%. Besides, the figures for the “Percent of Staining Fungi Coverage Average (%) in Stem Wound of Red Oak Seedlings (Day 28)” value in experiment [1] (setting [9]) and in experiment [1] (setting [10]) were 21% and 43%, respectively.
On to Mancozeb, for which the “Percent of Staining Fungi Coverage Average (%) in Stem Wound of Red Oak Seedlings (Day 28)” value was determined as 58% in experiment [1] (setting [3]); 30% in experiment [1] (setting [4]); 67% in experiment [1] (setting [5]); 24% in experiment [1] (setting [6]); 30% in experiment [1] (setting [7]); 22% in experiment [1] (setting [8]). Further, the “Percent of Staining Fungi Coverage Average (%) in Stem Wound of Red Oak Seedlings (Day 28)” value in experiment [1] (setting [9]) is reported as 35%; in experiment [1] (setting [10]) it was 74%.
